Columns and labels:
[1] = system: luciferase (luc) expressing TRAMP-C1 cells; assay: TRAMP-C1 cell survival after single dose irradiation (bioluminescence, 96-well); type: cell-based, mouse; conditions: for survival (% of bioluminescence before irradiation): single 8 Gy dose, drugs from 4 days after irradiation for 7 days, cinaciguat, p62 inducer, enzalutamide 1 μM, 8-bromo-cGMP 100 μM, DETA-NONOate 100 M (so in the source); for effect on irradiation-induced cell death: single dose 8 Gy irradiation, TRAMP-C1 cells, preliminary studies
Experimental: FIG. 4. The effect of single-dose and fractionated irradiation on TRAMP-C1 cell survival. A) Cells were plated at 5,000 cells/well in 96-well plates and subjected to single dose irradiation of 0 or 8 Gy. Four days following irradiation cells were treated with cinaciguat (1 μM), p62 inducer (1 μM), enzalutamide (1 μM), DETA-NONOate ([…]), 8-bromo-cGMP (100 μM) or vehicle (0.1% DMSO) for 1 week. Bioluminescence was measured before and after irradiation, and following drug treatment. […] B) Determination of 6 Gy as the optimal 5-day fractionated radiation dose based on cell survival.
Effect of drugs targeting NO·-cGMP pathway, mitophagy and AR signaling on TRAMP-C1 survival after single dose irradiation and determination of optimal fractionated irradiation protocol. To assess whether promoting NO·-cGMP signaling, induction of mitophagy or AR inhibition would enhance the effect of radiation treatment, the effect of these different drugs on cultured luciferase (luc) expressing TRAMP-C1 cells was examined in a 96-well plate format. Bioluminescence was assessed before irradiation after which the cells were exposed to a single 8 Gy radiation dose. Four days after irradiation cells were treated with the different drugs for a further 7 days. […] To determine the optimal fractionated irradiation dosing protocol, fractionated irradiation protocols were examined in cultured cells over a 5-day period. […] Therefore, 6 Gy per day for 5 days can be used as a dosing protocol.
Cell culture. Luciferase expressing TRAMP-C1 cells may be maintained in DMEM supplemented with 10% FBS, 1% PenStrep, 5 μg/ml insulin and 10 nM dehydroisoandrosterone and used at 10-15 passages. For experiments in Examples 1-3 cells may be plated at 5,000 cells/well in 96-well plates.
Bioluminescence in vitro and in vivo imaging. Cells may be treated with 150 μM luciferin D and immediately placed in Tecan SPECTRA Fluor Plus plate reader for bioluminescence measurement. Readings may be averaged for each group of cells (n≥ 8) and background (empty well readings) subtracted. Mice may be anesthetized with avertin (300 mg/kg, IP), depilated and injected with 150 mg/kg luciferin D, IP. They may be […] in a BioRad ChemiDoc MP imaging system in the supine position. Bioluminescence may be imaged for 600 sec using the Chemi Hi sensitivity protocol, intensity expressed colorimetrically, superimposed over images of the mice.

[2] = system: orthotopic TRAMP-C1 tumors; assay: Orthotopic TRAMP-C1 tumors after fractionated irradiation, prostate tissue weight; type: in vivo, C57BI/6 mice; conditions: 2 Gy fractions x 5 days; after one week osmotic pump 1 mg/kg/day for 14 days; vs irradiation alone
Experimental: FIG. 5. TRAMP-C1 orthotopic tumors and the effects of irradiation. A) TRAMP-C1 cells (10^7 cells/100 μl) were injected bilaterally into the ventrolateral prostatic lobes to create the orthotopic tumor mouse model. […] B) TRAMP-C1 tumor in a non-irradiated mouse 5 weeks after cell injection. C) Tumor following fractionated irradiation (2 Gy×5 days, starting 4 weeks post injection). D) Prostate wet weight in control, non-irradiated and irradiated tumor bearing animals.
FIG. 6. Bioluminescence imaging of prostate tumors and prostate size assessment following treatments. A) Image of colorimetrically expressed bioluminescence intensity superimposed over the mouse image. B) Prostates were excised from non-injected control, injected non-irradiated and injected irradiated (2 Gy×5 days) mice with or without treatments (P62 inducer or cinaciguat, 1 mg/kg/day for 2 weeks by ALZET pumps starting 1 week post irradiation). C) Timeline of tumor growth based on preliminary data.
Development of orthotopic TRAMP-C1 tumors in C57BI/6 mice and the effect of fractionated irradiation. […] At the conclusion of the treatment, tumor weights were evaluated. Without any intervention (drug or irradiation), there was a significant increase in tumor mass evaluated as total prostate tissue weight (FIG. 6 (B)).

[3] = system: sGCα1, Bcl-2/BAX and NF-κβ; assay: Immunolocalization of sGCα1, Bcl-2/BAX and NF-κβ in orthotopic TRAMP-C1 tumor sections; type: in vivo, mouse; conditions: fractionated irradiation plus 1 mg/kg/day for two weeks
Experimental: FIGS. 7A and 7B. Alterations in the sGCα1, Bcl-2/BAX ratio and NF-κβ nuclear localization in prostate tumors from non-irradiated mice, and irradiated mice treated with cinaciguat or p62 inducer based on immunolabeling intensity. A)-C) sGC α1 immunolabeling in A) non-irradiated orthotopic TRAMP-C1 tumors. B) orthotopic tumor from mouse receiving fractionated irradiation followed by two weeks of cinaciguat (1 mg/kg/day) treatment. C) orthotopic tumor from mouse receiving fractionated irradiation followed by two weeks of p62 mitophagy inducer (1 mg/kg/day) treatment. D)-F) Immunolabeling for Bcl-2 of D) non-irradiated orthotopic TRAMP-C1 tumor. E) orthotopic tumor from mouse receiving fractionated irradiation and cinaciguat treatment. F) orthotopic tumor from mouse receiving fractionated irradiation and p62 mitophagy inducer treatment. G-I) Immunolabeling for NF-κβ of G) non-irradiated orthotopic TRAMP-C1 tumor. H) orthotopic tumor from mouse receiving fractionated irradiation and cinaciguat treatment. I) orthotopic tumor of mouse receiving fractionated irradiation and p62 mitophagy inducer treatment. J) Bar chart for ratio of sGCα1 positive area to total cell area. K) Bar chart of Bcl-2 positive staining versus BAX positive staining in sequential sections from each group. […] Green fluorescence—immunolabeling, Blue—DAPI, nuclei. […]

[4] = Blood pressure and heart rate under cinaciguat treatment; type: in vivo, mice
[5] = system: mouse bladder with chronic radiation cystitis; assay: Chronic radiation cystitis in mice: cystometry (CMG) and bladder collagen staining; type: in vivo
Text: FIG. 12 Effects of cinaciguat on a mouse bladder with chronic radiation cystitis. A) Cystometry (CMG), non-irradiated mouse. B) CMG, 9 weeks following bladder irradiation (10 Gy). C) CMG, irradiation+daily gavage for 2 weeks with cinaciguat. D) Active and (E-F) passive length-tensions from irradiated+vehicle (red) vs. irradiated+cinaciguat (blue) bladder strips. G-I) Bladder cross-sections stained with Verhoeff Van Gieson solution; collagen is stained pink. J) Collagen, % area of the bladder wall, N=4. K) bladder weight in mg, control vs. irradiated (irr)>9 wks; N=5 ea.
Furthermore, irradiation decreases bladder weight by approximately 30% that could be attributed to muscle atrophy (FIG. 12 (K)).

[6] = given via i.v. drip; cited from earlier work
[7] = system: bladder of CyB5R3 smooth muscle conditional knockout mice; conditions: acute intraperitoneal injection; cited from earlier work
[8] = system: Bcl-2/BAX ratio; conditions: aged mice, reversal of benign prostatic hyperplasia; previously demonstrated; cited from earlier work

## Nc1nc2c(nc(Br)n2[C@@H]2O[C@@H]3COP(=O)(O)O[C@H]3[C@H]2O)c(=O)[nH]1 [8-bromo-cGMP]
[1]
  survival (% of bioluminescence before irradiation): 65±7%
  effect on irradiation-induced cell death: did not enhance irradiation-induced cell death

## NCCN(CCN)/[N+]([O-])=N/O [DETA-NoNoate]
[1]
  survival (% of bioluminescence before irradiation): 62±13%
[1]; listed as DETA NoNoate
  effect on irradiation-induced cell death: not
[1]; listed as DETA-NONOate
  effect on irradiation-induced cell death: did not enhance irradiation-induced cell death

## CNC(=O)c1ccc(N2C(=S)N(c3ccc(C#N)c(C(F)(F)F)c3)C(=O)C2(C)C)cc1F [enzalutamide]
[1]
  survival (% of bioluminescence before irradiation): 80±11%
  effect on irradiation-induced cell death: protected the cells and not

## O=C(O)CCCCN(CCc1ccccc1OCc1ccc(CCc2ccccc2)cc1)Cc1ccc(C(=O)O)cc1 [cinaciguat, 4-({(4-carboxybutyl)[2-(2-{[4-(2-phenylethyl)phenyl]methoxy}phenyl)ethyl]amino}methyl) benzoic acid]
[1]
  survival (% of bioluminescence before irradiation): 31±13%
  effect on irradiation-induced cell death: potentiated
[1]; listed as Cinaciguat
  effect on irradiation-induced cell death: most effective in promoting irradiation-induced tumor cell death
[2]
  tumor mass evaluated as total prostate tissue weight: marked decrease compared to irradiation alone
[3]
  sGCα1, Bcl-2/BAX and NF-κβ immunolabeling in tumor: all three markers were reduced
[4]; infused post irradiation 0.1-1 mg/kg/day for 28 days via osmotic pumps, preliminary data
  effect on blood pressure: without adversely affecting blood pressure
[4]; once-a-day oral 10 mg/kg
  effects on blood pressure and heart rate: only transient effects on blood pressure and heart rate
[5]; chronically irradiated mice, Verhoeff Van Gieson staining
  bladder wall structure (collagen staining): bladder wall structure similar to non-irradiated controls
[5]; daily gavage 10 mg/kg/day starting 7 weeks post irradiation (10 Gy), 2 weeks
  CMG profile: normalized the CMG profile
[5]; doubling of collagen 9 weeks post irradiation
  collagen content of bladder wall: reversed
[6]
  blood pressure effect (hypotension): induced hypotension
[7]
  intercontractile interval (ICI): increased ICI
  non-voiding contractions: eliminated non-voiding contractions
[8]
  Bcl-2/BAX ratio: decreasing the Bcl-2/BAX ratio
